Assay results published in patent publication US20260193170A1 (University of Copenhagen, priority 2022, published 2026).

Biological target: T1, human Keap1 Kelch domain (Homo sapiens, UniProt Q14145)
T1 construct: human Keap1 Kelch domain (residue 321-609, UniProt Q14145); made in house; host or cells: Escherichia coli BL21 (DE3) pLysS, pRSET A vector
Assay: Fluorescence polarization (FP) competition assay, Cy5-Nrf2 peptide probe
Assay type: binding
Conditions: heterologous competition FP; Keap1 Kelch 14 nM, Cy5-Nrf2 probe 3 nM, 4% DMSO; mean ± SEM
Procedure, shortened: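 Ki values came from FP competition of 12 compound concentrations (2-fold, duplicate) against 14 nM Keap1 Kelch and 3 nM Cy5-Nrf2 probe. Buffer was HEPES pH 7.4 with 4% DMSO; readings were taken at 635/670 nm after 10-15 min at room temperature. IC50 was converted to Ki using probe Kd and concentrations.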

T1 sequence (Q14145 321-609): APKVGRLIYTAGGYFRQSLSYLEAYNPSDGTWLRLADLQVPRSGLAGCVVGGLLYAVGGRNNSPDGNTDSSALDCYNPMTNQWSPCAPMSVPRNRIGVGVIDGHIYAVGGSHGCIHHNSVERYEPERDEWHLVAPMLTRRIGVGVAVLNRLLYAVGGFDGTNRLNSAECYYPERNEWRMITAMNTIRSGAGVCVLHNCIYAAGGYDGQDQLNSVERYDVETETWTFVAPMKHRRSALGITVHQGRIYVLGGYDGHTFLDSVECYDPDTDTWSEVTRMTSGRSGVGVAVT

Structure (SMILES)	Ki [µM]
O=C(O)CC(c1ccc2c(c1)OCO2)c1ccc2ccc(OCC(=O)NC3CCCC3)cc2c1 (centres unmarked) [6d, 3-(benzo[d][1,3]dioxol-5-yl)-3-(7-(2-(cyclopentylamino)-2-oxoethoxy)naphthalen-2-yl)propanoic acid]	0.062 ± 0.005
O=C(O)CC(c1ccc2c(c1)OCO2)c1ccc2ccc(OCC(=O)NC34CC5CC(CC(C5)C3)C4)cc2c1 [6e, 3-(7-(2-(((1S,3s)-adamantan-1-yl)amino)-2-oxoethoxy)naphthalen-2-yl)-3-(benzo[d][1,3]dioxol-5-yl)propanoic acid]	0.516 ± 0.115
CC1(NC(=O)COc2ccc3ccc(C(CC(=O)O)c4ccc5c(c4)OCO5)cc3c2)CCCCC1 (centres unmarked) [6f, 3-(benzo[d][1,3]dioxol-5-yl)-3-(7-(2-((1-methylcyclohexyl)amino)-2-oxoethoxy)naphthalen-2-yl)propanoic acid]	0.477 ± 0.07
CC1(C)CCC(NC(=O)COc2ccc3ccc(C(CC(=O)O)c4ccc5c(c4)OCO5)cc3c2)CC1 (centres unmarked) [6g, 3-(benzo[d][1,3]dioxol-5-yl)-3-(7-(2-((4,4-dimethylcyclohexyl)amino)-2-oxoethoxy)naphthalen-2-yl)propanoic acid]	0.056 ± 0.007
O=C(O)CC(c1ccc2c(c1)OCO2)c1ccc2ccc(OCC(=O)N[C@@H]3C[C@@H]4CC[C@H]3C4)cc2c1 (stereo partly drawn) [6h, 3-(benzo[d][1,3]dioxol-5-yl)-3-(7-(2-(((1S,2R,4R)-bicyclo[2.2.1]heptan-2-yl)amino)-2-oxoethoxy)naphthalen-2-yl)propanoic acid]	0.019 ± 0.003
O=C(O)CC(c1ccc2c(c1)OCO2)c1ccc2ccc(OCC(=O)N[C@H]3CC[C@H](C(F)(F)F)CC3)cc2c1 (stereo partly drawn) [6i, 3-(benzo[d][1,3]dioxol-5-yl)-3-(7-(2-oxo-2-((trans-4-(trifluoromethyl)cyclohexyl)amino)ethoxy)naphthalen-2-yl)propanoic acid]	0.397 ± 0.041
O=C(O)CC(c1ccc2c(c1)OCO2)c1ccc2ccc(OCC(=O)N[C@H]3CC[C@@H](C(F)(F)F)CC3)cc2c1 (stereo partly drawn) [6j, 3-(benzo[d][1,3]dioxol-5-yl)-3-(7-(2-oxo-2-((cis-4-(trifluoromethyl)cyclohexyl)amino)ethoxy)naphthalen-2-yl)propanoic acid]	0.045 ± 0.001
CCCC1CCCCN1C(=O)COc1ccc2ccc(C(CC(=O)O)c3ccc4c(c3)OCO4)cc2c1 (centres unmarked) [6k, 3-(benzo[d][1,3]dioxol-5-yl)-3-(7-(2-oxo-2-(2-propylpiperidin-1-yl)ethoxy)naphthalen-2-yl)propanoic acid]	0.063 ± 0.003
O=C(O)CC(c1ccc2c(c1)OCO2)c1ccc2ccc(OCC(=O)Nc3ccccc3)cc2c1 (centres unmarked) [6l, 3-(benzo[d][1,3]dioxol-5-yl)-3-(7-(2-oxo-2-(phenylamino)ethoxy)naphthalen-2-yl)propanoic acid]	1.88
CC(Oc1ccc2ccc(C(CC(=O)O)c3ccc4c(c3)OCO4)cc2c1)C(=O)NC1CCCCCC1 (centres unmarked) [7a, 3-(Benzo[d][1,3]dioxol-5-yl)-3-(7-((1-(cycloheptylamino)-1-oxopropan-2-yl)oxy)naphthalen-2-yl)propanoic acid]	0.153 ± 0.012
CN(C(=O)COc1ccc2ccc(C(CC(=O)O)c3ccc4c(c3)OCO4)cc2c1)C1CCCCCC1 (centres unmarked) [7b, 3-(benzo[d][1,3]dioxol-5-yl)-3-(7-(2-(cycloheptyl(methyl)amino)-2-oxoethoxy)naphthalen-2-yl)propanoic acid]	0.129 ± 0.009
CC(C(=O)O)C(c1ccc2c(c1)OCO2)c1ccc2ccc(OCC(=O)NC3CCCCCC3)cc2c1 (centres unmarked) [7c, 3-(benzo[d][1,3]dioxol-5-yl)-3-(7-(2-(cycloheptylamino)-2-oxoethoxy)naphthalen-2-yl)-2-methylpropanoic acid]	0.015 ± 0.001
CC(C)(C(=O)O)C(c1ccc2c(c1)OCO2)c1ccc2ccc(OCC(=O)NC3CCCCCC3)cc2c1 (centres unmarked) [7d, 3-(benzo[d][1,3]dioxol-5-yl)-3-(7-(2-(cycloheptylamino)-2-oxoethoxy)naphthalen-2-yl)-2,2-dimethylpropanoic acid]	0.003 ± 0.001
O=C(O)CC(c1ccc2c(c1)OCO2)c1ccc2ncc(OCC(=O)NC3CCCCCC3)cc2c1 (centres unmarked) [9a, 3-(benzo[d][1,3]dioxol-5-yl)-3-(3-(2-(cycloheptylamino)-2-oxoethoxy)quinolin-6-yl)propanoic acid]	0.522 ± 0.067
O=C(O)CC(c1ccc2c(c1)OCO2)c1ccc2ccc(OCC(=O)NC3CCCCCC3)nc2c1 (centres unmarked) [9b, 3-(benzo[d][1,3]dioxol-5-yl)-3-(2-(2-(cycloheptylamino)-2-oxoethoxy)quinolin-7-yl)propanoic acid]	0.083 ± 0.037
O=C(O)CC(c1ccc2c(c1)OCO2)c1cnc2ccc(OCC(=O)NC3CCCCCC3)cc2c1 (centres unmarked) [9c, 3-(benzo[d][1,3]dioxol-5-yl)-3-(6-(2-(cycloheptylamino)-2-oxoethoxy)quinolin-3-yl)propanoic acid]	0.064

Biological target: T2, human Keap1 Kelch (Homo sapiens, UniProt Q14145)
T2 construct: human Keap1 Kelch domain (residue 321-609, UniProt Q14145); made in house; host or cells: Escherichia coli BL21 (DE3) pLysS, pRSET A vector
T2 sequence (Q14145 321-609): as above
Assay: Surface plasmon resonance (SPR), immobilized Keap1 Kelch domain
Assay type: binding
Conditions: 25 °C, Rmax constrained to 15 RU (theoretical max)
Source text: 768 fragments from the commercial available (Enamine) DSI-poised library were screened against the human Keap1 Kelch domain using X-ray crystallography. After data collection and processing (example 3), several crystal structures with high-resolution (1.0-2.1 Å) were identified showing fragments bound to the Keap1 binding pocket. […] To confirm XCF #0252 as a hit and determine its affinity to human Keap1 Kelch, this fragment was resynthesized (Scheme 1) and tested by surface plasmon resonance (SPR). In SPR, a dose-dependent activity was observed and an affinity of Kd=0.6 mM was measured (FIG. 2B).
SPR measurements were performed at 25° C. using a Pioneer FE FE instrument (Sartorius). The Keap1 Kelch domain was covalently immobilized on the biosensor chip surface by amine coupling to a level of 2150 RU, using a 10 mM NaOAc pH 5 immobilization buffer. The 1×HBSTET buffer supplemented with 4% DMSO was used as running buffer for the experiments. Microcalibration was performed for all SPR experiments to adjust for DMSO bulk effects (low limit of 3% and a high limit of 4%). The compound was injected in a concentration series of twofold serial dilutions ([…]-1000 μM) using standard injections at a 30 μL/min flow rate. The data were analyzed using Qdat Data Analysis Tool version 2.6.3.0 (Sartorius). […]

Structure (SMILES)	Kd [nM]
O=C(COc1ccccc1)NC1CCCCC1 [XCF #0252, N-Cyclohexyl-2-phenoxyacetamide]	600000
